Results on 27 molecules are retold here after US20110257208A1, “COMPOUNDS USEFUL AS FAAH MODULATORS AND USES THEREOF” (priority 2008, published 2011).

For orientation: inhibition means the percentage by which the read-out fell short of the control.

In this experiment the target is T1, hFAAH (Homo sapiens, UniProt O00519).
T1 construct: expressed in transfected cells; host or cells: HEK293-TRex (Invitrogen) stably transfected with hFAAH in the pcDNA5-Tet-off vector, or T84 human colon epithelial cells (endogenous hFAAH); used as a microsomal preparation
T1 sequence (O00519 1-579): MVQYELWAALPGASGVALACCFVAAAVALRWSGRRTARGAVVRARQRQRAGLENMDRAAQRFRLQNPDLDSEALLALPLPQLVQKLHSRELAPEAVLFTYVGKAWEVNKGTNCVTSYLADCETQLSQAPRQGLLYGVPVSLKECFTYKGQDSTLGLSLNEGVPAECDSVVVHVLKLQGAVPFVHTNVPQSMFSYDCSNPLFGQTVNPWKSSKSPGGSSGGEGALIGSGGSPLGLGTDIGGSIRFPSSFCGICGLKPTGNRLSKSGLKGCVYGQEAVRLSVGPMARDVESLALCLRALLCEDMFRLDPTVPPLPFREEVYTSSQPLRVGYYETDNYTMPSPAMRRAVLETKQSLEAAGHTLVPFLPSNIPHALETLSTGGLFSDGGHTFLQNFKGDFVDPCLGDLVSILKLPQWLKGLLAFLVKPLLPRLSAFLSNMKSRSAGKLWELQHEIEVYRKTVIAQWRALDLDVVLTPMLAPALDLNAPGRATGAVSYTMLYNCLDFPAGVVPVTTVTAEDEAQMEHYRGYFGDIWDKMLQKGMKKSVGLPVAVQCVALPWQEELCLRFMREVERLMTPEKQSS
The experiment in a line: Fluorimetric assay with hFAAH microsomes (enzymatic, fluorescence based). The class given is biochemical. The following applies: compound at 1 uM, AA-AMC substrate. Here is the method:
Human cell line T84 (human colon epithelial cells), which expresses endogenous hFAAH, or HEK293-TRex cells (Invitrogen) stably transfected with hFAAH in the pcDNA5-Tet-off vector are cultured in medium containing DMEM, 10% FBS penicillin/streptomycin, glutamax, 200 μg/ml hygromycin and 0.5 μg/ml blasticidin. Cell collection is done 24 h after induction with doxycycline by first washing the cells with cold PBS and then incubating them with Versene before centrifugation. Cell pellets are then stored at −80° C. until needed. For homogenization, the cell pellets are thawed on ice […] and resuspended in homogenization buffer (50 mM HEPES (pH 7.4), 1 mM EDTA, 1 μM Pepstatin A, 100 μM Leupeptin, 0.1 mg/mL aprotinin). Cell suspensions are then homogenized on ice using the Polytron 1200 C at setting 6 for three 30-second intervals with 30-second rests. The suspension is centrifuged at 1000 g for 10 minutes at 4° C. and the supernatant is collected and further centrifuged at 24000 rpm for 30 minutes at 4° C. using an ultracentrifuge. Pellets are resuspended by adding in cold microsomal buffer (50 mM HEPES (pH 7.4) and 1 mM EDTA) and sheared through a 23-gauge needle five times, keeping the suspension on ice. Protein concentrations are determined using the BCA assay and aliquoted preparations are stored at −80° C. until needed.
Compound potency against hFAAH is determined using an enzymatic assay with a fluorescence readout. Briefly, experiments were carried out in a 96-well plate format (Corning Costar, # 3370) with a total well volume of 160 μL with components added in the following order: assay buffer (50 mM HEPES (pH 7.4), 1 mM EDTA, 1.4 mg/mL BSA), compound solutions (7 different concentrations per compound in duplicate), microsomal enzyme preparation (10 μg per well) and substrate [AA-AMC (arachadonyl 7-amino 4-methyl coumarin amide), 2 μM]. After a brief shaking, a kinetic read of the plate is obtained using a Tecan Safire II in kinetic mode for 275 cycles with excitation and emission wavelengths of 355 and 460 nm, respectively. Raw data is then processed and analyzed using Assay Explorer and GraphPad Prism.
The following compounds have been or can be prepared according to the methods of the invention. An enzymatic (fluorescence based) assay is performed as described above. In Table 1, activity of each compound is expressed as follows: • ++++ % Inhibition >75% • +++ % Inhibition >50% • ++ % Inhibition >25% • + % Inhibition <25%
`c1ccc2ncc(Nc3ncnc4c3CN(Cc3cccc5cc[nH]c35)C4)cc2c1` [Compound 110, [6-(1H-Indol-7-ylmethyl)-6,7-dihydro-5H-pyrrolo[3,4-d]pyrimidin-4-yl]-quinolin-3-yl-amine]: the inhibition at 1 µM is > 75%.
As for `CCc1nc(C)c(CN2Cc3ncnc(Nc4cnc5ccccc5c4)c3C2)s1` [Compound 97, [6-(2-Ethyl-4-methyl-thiazol-5-ylmethyl)-6,7-dihydro-5H-pyrrolo[3,4-d]pyrimidin-4-yl]-quinolin-3-yl-amine], the figure is > 75%; as for `COC(=O)c1cc(S(=O)(=O)N2Cc3ncnc(Nc4cnc5ccccc5c4)c3C2)oc1C` [Compound 62, 2-Methyl-5-[4-(quinolin-3-ylamino)-5,7-dihydro-pyrrolo[3,4-d]pyrimidine-6-sulfonyl]-furan-3-carboxylic acid methyl ester], > 25%; as for `FC(F)(F)CN1Cc2ncnc(Nc3cnc4ccccc4c3)c2C1` [Compound 30, Quinolin-3-yl-[6-(2,2,2-trifluoro-ethyl)-6,7-dihydro-5H-pyrrolo[3,4-d]pyrimidin-4-yl]-amine], < 25%.
For `O=S(=O)(c1ccccc1OC(F)(F)F)N1Cc2ncnc(Nc3cnc4ccccc4c3)c2C1` [Compound 70, Quinolin-3-yl-[6-(2-trifluoromethoxy-benzenesulfonyl)-6,7-dihydro-5H-pyrrolo[3,4-d]pyrimidin-4-yl]-amine] the value was > 25%; for `FC(F)(F)CCN1Cc2ncnc(Nc3cnc4ccccc4c3)c2C1` [Compound 31, Quinolin-3-yl-[6-(3,3,3-trifluoro-propyl)-6,7-dihydro-5H-pyrrolo[3,4-d]pyrimidin-4-yl]-amine], > 50%; for `Cc1ccccc1S(=O)(=O)N1Cc2ncnc(Nc3cnc4ccccc4c3)c2C1` [Compound 59, Quinolin-3-yl-[6-(toluene-2-sulfonyl)-6,7-dihydro-5H-pyrrolo[3,4-d]pyrimidin-4-yl]-amine], > 75%.
As for `CCOc1ccccc1CN1Cc2ncnc(Nc3cnc4ccccc4c3)c2C1` [Compound 100, [6-(2-Ethoxy-benzyl)-6,7-dihydro-5H-pyrrolo[3,4-d]pyrimidin-4-yl]-quinolin-3-yl-amine], the figure is > 75%; as for `FC(F)(F)c1cccc(CN2Cc3ncnc(Nc4cnc5ccccc5c4)c3C2)c1` [Compound 99, Quinolin-3-yl-[6-(3-trifluoromethyl-benzyl)-6,7-dihydro-5H-pyrrolo[3,4-d]pyrimidin-4-yl]-amine], > 75%.
In the case of `O=S(=O)(C1CCCCC1)N1Cc2ncnc(Nc3cnc4ccccc4c3)c2C1` [Compound 64, (6-Cyclohexanesulfonyl-6,7-dihydro-5H-pyrrolo[3,4-d]pyrimidin-4-yl)-quinolin-3-yl-amine], the inhibition at 1 µM is > 50%.
For `O=S(=O)(c1ccccc1)N1Cc2ncnc(Nc3cnc4ccccc4c3)c2C1` [Compound 65, (6-Benzenesulfonyl-6,7-dihydro-5H-pyrrolo[3,4-d]pyrimidin-4-yl)-quinolin-3-yl-amine] the value was > 25%; for `CC(C)CCN1Cc2ncnc(Nc3cnc4ccccc4c3)c2C1` [Compound 9, [6-(3-Methyl-butyl)-6,7-dihydro-5H-pyrrolo[3,4-d]pyrimidin-4-yl]-quinolin-3-yl-amine], > 50%; for `CC(C)N1Cc2ncnc(Nc3cnc4ccccc4c3)c2C1` [Compound 34, (6-Isopropyl-6,7-dihydro-5H-pyrrolo[3,4-d]pyrimidin-4-yl)-quinolin-3-yl-amine], < 25%.
As for `c1ccc2ncc(Nc3ncnc4c3CN(CC3CCCC3)C4)cc2c1` [Compound 12, (6-Cyclopentylmethyl-6,7-dihydro-5H-pyrrolo[3,4-d]pyrimidin-4-yl)-quinolin-3-yl-amine], the figure is > 75%; as for `c1ccc2ncc(Nc3ncnc4c3CN(C3CCC3)C4)cc2c1` [Compound 43, (6-Cyclobutyl-6,7-dihydro-5H-pyrrolo[3,4-d]pyrimidin-4-yl)-quinolin-3-yl-amine], < 25%; as for `O=S(=O)(C1CCCC1)N1Cc2ncnc(Nc3cnc4ccccc4c3)c2C1` [Compound 57, (6-Cyclopentanesulfonyl-6,7-dihydro-5H-pyrrolo[3,4-d]pyrimidin-4-yl)-quinolin-3-yl-amine], > 25%.
As for `CC(C)CN1Cc2ncnc(Nc3cnc4ccccc4c3)c2C1` [Compound 7, (6-Isobutyl-6,7-dihydro-5H-pyrrolo[3,4-d]pyrimidin-4-yl)-quinolin-3-yl-amine], the figure is > 25%; as for `Cc1cccnc1CN1Cc2ncnc(Nc3cnc4ccccc4c3)c2C1` [Compound 79, [6-(3-Methyl-pyridin-2-ylmethyl)-6,7-dihydro-5H-pyrrolo[3,4-d]pyrimidin-4-yl]-quinolin-3-yl-amine], < 25%; as for `c1ccc2ncc(Nc3ncnc4c3CN(Cc3cncs3)C4)cc2c1` [Compound 81, Quinolin-3-yl-(6-thiazol-5-ylmethyl-6,7-dihydro-5H-pyrrolo[3,4-d]pyrimidin-4-yl)-amine], > 25%.
As to `CC(CC(C)(C)C)N1Cc2ncnc(Nc3cnc4ccccc4c3)c2C1` (stereo not drawn) [Compound 39, Quinolin-3-yl-[6-(1,3,3-trimethyl-butyl)-6,7-dihydro-5H-pyrrolo[3,4-d]pyrimidin-4-yl]-amine], the inhibition at 1 µM is < 25%.
For `Cc1ncsc1CN1Cc2ncnc(Nc3cnc4ccccc4c3)c2C1` [Compound 66, [6-(4-Methyl-thiazol-5-ylmethyl)-6,7-dihydro-5H-pyrrolo[3,4-d]pyrimidin-4-yl]-quinolin-3-yl-amine] the value was > 75%.
For the molecule `O=C(CN1CCCCCC1)N1Cc2ncnc(Nc3cnc4ccccc4c3)c2C1` [Compound 52, 2-Azepan-1-yl-1-[4-(quinolin-3-ylamino)-5,7-dihydro-pyrrolo[3,4-d]pyrimidin-6-yl]-ethanone], the inhibition at 1 µM was < 25%.
As for `FC(F)(F)Oc1cccc(CN2Cc3ncnc(Nc4cnc5ccccc5c4)c3C2)c1` [Compound 104, Quinolin-3-yl-[6-(3-trifluoromethoxy-benzyl)-6,7-dihydro-5H-pyrrolo[3,4-d]pyrimidin-4-yl]-amine], the figure is > 75%.
For `O=S(=O)(c1ccc(-c2cnco2)s1)N1Cc2ncnc(Nc3cnc4ccccc4c3)c2C1` [Compound 55, [6-(5-Oxazol-5-yl-thiophene-2-sulfonyl)-6,7-dihydro-5H-pyrrolo[3,4-d]pyrimidin-4-yl]-quinolin-3-yl-amine] the value was > 25%.
For `CC(C1CCCC1)N1Cc2ncnc(Nc3cnc4ccccc4c3)c2C1` (stereo not drawn) [Compound 37, [6-(1-Cyclopentyl-ethyl)-6,7-dihydro-5H-pyrrolo[3,4-d]pyrimidin-4-yl]-quinolin-3-yl-amine] the value was > 50%; for `Cc1occc1CN1Cc2ncnc(Nc3cnc4ccccc4c3)c2C1` [Compound 96, [6-(2-Methyl-furan-3-ylmethyl)-6,7-dihydro-5H-pyrrolo[3,4-d]pyrimidin-4-yl]-quinolin-3-yl-amine], > 50%; for `Cc1nc(C)c(C(=O)N2Cc3ncnc(Nc4cnc5ccccc5c4)c3C2)s1` [Compound 49, (2,4-Dimethyl-thiazol-5-yl)-[4-(quinolin-3-ylamino)-5,7-dihydro-pyrrolo[3,4-d]pyrimidin-6-yl]-methanone], > 50%.
